Laboratory results published in patent US8143315B2, “Salts of the active substance rasagiline” (priority 2006, dated 2012).
Structures can show the parent of a compound that is named as a salt. Where two headings read alike, the source gives them in different places.

Assays:
[1] = for appearance: 60° C., closed glass bottle; for appearance / agglomerates of the salt as produced: immediately after production (general description); for formation of agglomerates after long storage: above all dry storage (general description); for agglomerates after storage: storage in a closed glass bottle (general description, time not stated)
[2] = for appearance / total content of chemical contaminations / water content: 40° C./75% relative humidity, open glass bottle; for appearance after storage under humid conditions: 40° C., 75% relative humidity in an open glass bottle (general description, time not stated)
[3] = tablets, 60° C. closed glass bottle
[4] = Particle size distribution by laser diffraction; details: for d(0.1) ± SD / d(0.5) ± SD / d(0.9) ± SD: average of three measurement cycles, dispersant low-viscosity paraffin
[5] = Determination of solubility; details: for pH of the saturated solution / solubility: one-hour storage at 37° C.; for solubility in words: general description; for solubility: HPLC
[6] = Determination of hygroscopicity (storage in humidity chambers); type: physicochemical; details: storage below 93% humidity, room temperature
[7] = Direct compression without mannitol, 4 weeks
[8] = Direct compression without mannitol, initial value
[9] = Granulation 1 with mannitol (55%), 4 weeks
[10] = Granulation 1 with mannitol (55%), initial value
[11] = Granulation 2 without mannitol, 4 weeks
[12] = Granulation 2 without mannitol, initial value
[13] = Granulation 1 with mannitol (55%)

Molecule	appearance ([1]; 4 weeks)	appearance ([1]; 8 weeks)	appearance ([1]; 12 weeks)	appearance / agglomerates of the salt as produced [1]	appearance ([2]; 4 weeks)	appearance ([2]; 8 weeks)	appearance ([2]; 12 weeks)	portion of decomposed active substance [3, 7] [%]	portion of decomposed active substance [3, 8] [%]	portion of decomposed active substance [3, 9] [%]	portion of decomposed active substance [3, 10] [%]	portion of decomposed active substance [3, 11] [%]	portion of decomposed active substance [3, 12] [%]	fraction ≦ 250 μm [4] [%]	d(0.1) ± SD [4] [μm]	d(0.5) ± SD [4] [μm]	d(0.9) ± SD [4] [μm]	water absorption (hygroscopicity) [6]	solubility in citric acid solution [13]	solubility in citric acid solution (Granulation 2 without mannitol)	other results
rasagiline tartrate	unchanged	unchanged	unchanged	undesired agglomerates	unchanged	unchanged	unchanged	2.5	0.00	3.1	0.00	2.8	0.00	97.2	5.0 ± 0.04	40.9 ± 0.57	161.2 ± 1.34				
C#CCN[C@@H]1CCc2ccccc21 [Rasagiline hydrochloride]																					portion of decomposed active substance ([3]; Direct compression without mannitol, 4 weeks, hydrochloride): 1.5%; portion of decomposed active substance ([3]; Granulation 1 with mannitol (55%), 4 weeks, hydrochloride): 2.4%; portion of decomposed active substance ([3]; Granulation 2 without mannitol, 4 weeks, hydrochloride): 1.9%
C#CCN[C@@H]1CCc2ccccc21.C#CCN[C@@H]1CCc2ccccc21.O=S(=O)(O)CCS(=O)(=O)O [Rasagiline edisilate, Rasagiline Edisilate]	unchanged	unchanged	unchanged	white crystal powder which is free of agglomerates	unchanged	unchanged	unchanged	0.40	0.00	1.4	0.00	0.79	0.00	100.0	2.7 ± 0.01	12.8 ± 0.08	35.1 ± 0.36	no water absorption	very high	very high	formation of agglomerates after long storage [1]: does not form any agglomerates; pH of the saturated solution ([5]; 0.1 N HCl): 1.0; pH of the saturated solution ([5]; Demineralized water): 4.4; pH of the saturated solution ([5]; USP acetate buffer, pH 4.5): 4.4; pH of the saturated solution ([5]; USP phosphate buffer, pH 6.8): 6.2; solubility in words [5]: dissolves very rapidly and well
C#CCN[C@@H]1CCc2ccccc21 [Rasagiline mesylate, rasagiline mesylate]								0.46	0.00	2.6	0.00	1.3	0.00	100.0	13.6 ± 0.05	40.5 ± 0.25	85.7 ± 0.89	absorbed large amounts of water and liquefied	very high	very high	agglomerates after storage [1]: agglomerates; appearance after storage under humid conditions [2]: sticky powder which is difficult to process
rasagiline phosphate								2.9	0.00	3.0	0.00	2.5	0.00						high	high	agglomerates after storage [1]: agglomerates; appearance after storage under humid conditions [2]: sticky powder which is difficult to process; total content of chemical contaminations ([2]; 4 weeks): 0.05%; water content ([2]; 4 weeks): 0.2%; total content of chemical contaminations ([2]; 8 weeks): 0.19%; water content ([2]; 8 weeks): 0.4%; total content of chemical contaminations ([2]; t0): 0.0%; water content ([2]; t0): 0.1%
Rasagiline Oxalate	unchanged	unchanged	unchanged	white crystal powder which is free of agglomerates										98.1	19.9 ± 0.02	53.0 ± 0.09	120.5 ± 0.66	no water absorption			formation of agglomerates after long storage [1]: does not form any agglomerates; pH of the saturated solution ([5]; 0.1 N HCl): 1.2; solubility ([5]; 0.1 N HCl): 29.9 mg/mL; pH of the saturated solution ([5]; Demineralized water): 2.7; solubility ([5]; Demineralized water): 19.7 mg/mL; pH of the saturated solution ([5]; USP acetate buffer, pH 4.5): 3.4; solubility ([5]; USP acetate buffer, pH 4.5): 24.3 mg/mL; pH of the saturated solution ([5]; USP phosphate buffer, pH 6.8): 3.4; solubility ([5]; USP phosphate buffer, pH 6.8): 24.2 mg/mL; solubility in words [5]: much more difficult to dissolve
